Data taken from BigSolDB 2.1.

COc1cc(CC#N)cc(OC)c1OC
solubility (mole fraction)
Settings | 283.15 K | 288.15 K | 293.15 K | 298.15 K | 303.15 K | 308.15 K | 313.15 K | 318.15 K | 323.15 K
in DMF | 0.102 | 0.127 | 0.158 | 0.195 | 0.239 | 0.289 | 0.35 | 0.418 | 0.497
in cyclohexane | 0.000133 | 0.000248 | 0.000452 | 0.000814 | 0.00154 | 0.00253 | 0.00421 | 0.00671 | 0.011
in ethanol | 0.00753 | 0.00999 | 0.0141 | 0.0209 | 0.0327 | 0.0539 | 0.0927 | 0.167 | 0.312
in ethyl acetate | 0.0517 | 0.076 | 0.107 | 0.146 | 0.195 | 0.25 | 0.315 | 0.386 | 0.461
in isopropanol | 0.00545 | 0.00703 | 0.00942 | 0.0134 | 0.0199 | 0.0305 | 0.0497 | 0.0838 | 0.146
in isopropyl acetate | 0.0389 | 0.0537 | 0.0736 | 0.101 | 0.135 | 0.182 | 0.243 | 0.321 | 0.423
in methanol | 0.00958 | 0.0128 | 0.0179 | 0.0261 | 0.0402 | 0.0638 | 0.106 | 0.183 | 0.327
in n-butanol | 0.00774 | 0.00978 | 0.0129 | 0.018 | 0.0265 | 0.0409 | 0.0657 | 0.111 | 0.193
in n-heptane | 5.37e-05 | 0.000146 | 0.000336 | 0.000693 | 0.00141 | 0.00222 | 0.00361 | 0.00573 | 0.00905
in n-hexane | 0.000515 | 0.000732 | 0.00107 | 0.0016 | 0.00233 | 0.0035 | 0.00533 | 0.00803 | 0.0121
in n-propanol | 0.00747 | 0.00951 | 0.0127 | 0.0179 | 0.0264 | 0.041 | 0.0658 | 0.111 | 0.191
in sec-butanol | 0.00911 | 0.0137 | 0.0206 | 0.0314 | 0.0481 | 0.0755 | 0.118 | 0.189 | 0.301
